# Test results published in patent US10799605B2 (3B PHARMACEUTICALS GMBH, priority 2014, dated 2020).
# Where two headings read alike, the source gives them in different places.
# Columns and labels:
# dopamine transporter (h) = dopamine transporter (h) (Homo sapiens (Human), UniProt Q01959); experiment: ExpresSProfile: dopamine transporter, antagonist radioligand; format: binding; conditions: Test Concentration 1.0E−05 M
# CXCR2 (IL-8B) (h) = CXCR2 (IL-8B) (h) (Homo sapiens (Human), UniProt P25025); experiment: ExpresSProfile: C-X-C chemokine receptor type 2, agonist radioligand; format: binding; conditions: Test Concentration 1.0E−05 M
# 5-HT5a (h) = 5-HT5a (h) (Homo sapiens (Human), UniProt P47898); experiment: ExpresSProfile: 5-hydroxytryptamine receptor 5a, agonist radioligand; format: binding; conditions: Test Concentration 1.0E−05 M
# [1] = Plasma stability assay, mouse plasma; format: in vitro ADME
# Method: The plasma stability assay was performed to measure the degradation of compounds of the present invention in plasma. This is an important characteristic of a compound as compounds, with the exception of pro-drugs, which rapidly degrade in plasma generally show poor in vivo efficacy.
# The plasma was spiked with a 10 mM analyte solution in dimethyl sulfoxide to a final concentration of 10 μM, vortexed, and aliquotted to 50 μl samples. Two aliquots were stored at −20° C. until further treatment. Another two aliquots were incubated using an Eppendorf Thermomixer at 37° C. for 1, 4, and 24 hours. Sample clean-up was performed using a protein precipitation plate (Phenomenex Strata Impact, 64722-1-324-1) and using acetonitrile as precipitation agent. […] An aliquot of 10 μl was diluted with 90 μl 0.1% aqueous trifluoroacetic acid solution. The determination of the analyte in the clean sample solutions was performed on a Thermo TSQ Quantum Ultra triple quadrupole mass spectrometer equipped with a thermo Surveyor HPLC. The chromatographic separation was carried out on a Phenomenex Kinetex XB-C18 HPLC column (50×2 mm, […] particle size) with gradient elution using a mixture of 0.01% trifluoroacetic acid and 0.05% formic acid in water as eluent A and methanol as eluent B (20% B to 100% in 8 min, 400 μl/min, 40° C.). For mass spectrometric detection the selected reaction monitoring (SRM) was used.
# Quantitation was performed by external matrix calibration using an internal standard.
# GABA (non-selective) = experiment: ExpresSProfile: GABA, agonist radioligand; format: binding; conditions: Test Concentration 1.0E−05 M
# sst (non-selective) = experiment: ExpresSProfile: somatostatin receptor, agonist radioligand; format: binding; conditions: Test Concentration 1.0E−05 M
# 5-HT2A (h) = 5-HT2A (h) (Homo sapiens (Human), UniProt P28223); experiment: ExpresSProfile: 5-hydroxytryptamine receptor 2A, antagonist radioligand; format: binding; conditions: Test Concentration 1.0E−05 M
# D2S (h) = D2S (h) (Homo sapiens (Human), UniProt P14416); experiment: ExpresSProfile: dopamine receptor 2S, antagonist radioligand; format: binding; conditions: Test Concentration 1.0E−05 M
# alpha 2 (non-selective) = experiment: ExpresSProfile: alpha2 adrenergic receptor, antagonist radioligand; format: binding; conditions: Test Concentration 1.0E−05 M
# ETA (h) = ETA (h) (Homo sapiens (Human), UniProt P25101); experiment: ExpresSProfile: endothelin receptor A, agonist radioligand; format: binding; conditions: Test Concentration 1.0E−05 M
# V1a (h) = V1a (h) (Homo sapiens (Human), UniProt P37288); experiment: ExpresSProfile: V1a, agonist radioligand; format: binding; conditions: Test Concentration 1.0E−05 M
# CCK1 (CCKA) (h) = CCK1 (CCKA) (h) (Homo sapiens (Human), UniProt P32238); experiment: ExpresSProfile: cholecystokinin receptor 1, agonist radioligand; format: binding; conditions: Test Concentration 1.0E−05 M
# NTS1 (NT1) (h) = NTS1 (NT1) (h) (Homo sapiens (Human), UniProt P30989); experiment: ExpresSProfile: neurotensin receptor 1, agonist radioligand; format: binding; conditions: Test Concentration 1.0E−05 M
# Cl-channel (GABA-gated) = experiment: ExpresSProfile: Cl-channel, antagonist radioligand; format: binding; conditions: Test Concentration 1.0E−05 M
# kappa (KOP) = kappa (KOP) (Rattus norvegicus, UniProt P34975); experiment: ExpresSProfile: kappa opioid receptor, agonist radioligand; format: binding; conditions: Test Concentration 1.0E−05 M
# AT1 (h) = AT1 (h) (Homo sapiens (Human), UniProt P30556); experiment: ExpresSProfile: angiotensin receptor 1, antagonist radioligand; format: binding; conditions: Test Concentration 1.0E−05 M
# 5-HT6 (h) = 5-HT6 (h) (Homo sapiens (Human), UniProt P50406); experiment: ExpresSProfile: 5-hydroxytryptamine receptor 6, agonist radioligand; format: binding; conditions: Test Concentration 1.0E−05 M
# 5-HT3 (h) = 5-HT3 (h) (Homo sapiens (Human), UniProt P46098); experiment: ExpresSProfile: 5-hydroxytryptamine channel 3, antagonist radioligand; format: binding; conditions: Test Concentration 1.0E−05 M
# SKCa channel = experiment: ExpresSProfile: SKCa channel, antagonist radioligand; format: binding; conditions: Test Concentration 1.0E−05 M
# M1 (h) = M1 (h) (Homo sapiens (Human), UniProt P11229); experiment: ExpresSProfile: muscarinic receptor 1, antagonist radioligand; format: binding; conditions: Test Concentration 1.0E−05 M
# Y2 (h) = Y2 (h) (Homo sapiens (Human), UniProt P49146); experiment: ExpresSProfile: neuropeptide Y receptor 2, agonist radioligand; format: binding; conditions: Test Concentration 1.0E−05 M
# [2] = read-out: % Inhibition of Control Specific Binding
# [3] = read-out: % of Control Specific Binding 1st
# [4] = read-out: % of Control Specific Binding 2nd
# [5] = read-out: % of Control Specific Binding Mean
# Sequence of AT1 (h) (P30556 whole entry): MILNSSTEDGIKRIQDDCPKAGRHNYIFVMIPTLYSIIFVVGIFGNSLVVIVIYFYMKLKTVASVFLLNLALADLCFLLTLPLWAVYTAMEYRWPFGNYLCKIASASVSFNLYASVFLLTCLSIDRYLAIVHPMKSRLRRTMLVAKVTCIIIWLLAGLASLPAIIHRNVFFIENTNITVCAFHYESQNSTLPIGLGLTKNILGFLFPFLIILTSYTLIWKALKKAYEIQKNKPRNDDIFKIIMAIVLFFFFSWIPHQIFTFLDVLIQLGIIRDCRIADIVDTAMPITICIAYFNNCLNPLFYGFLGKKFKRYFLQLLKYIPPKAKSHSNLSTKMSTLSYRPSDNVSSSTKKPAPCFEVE
# Sequence of 5-HT3 (h) (P46098 24-478): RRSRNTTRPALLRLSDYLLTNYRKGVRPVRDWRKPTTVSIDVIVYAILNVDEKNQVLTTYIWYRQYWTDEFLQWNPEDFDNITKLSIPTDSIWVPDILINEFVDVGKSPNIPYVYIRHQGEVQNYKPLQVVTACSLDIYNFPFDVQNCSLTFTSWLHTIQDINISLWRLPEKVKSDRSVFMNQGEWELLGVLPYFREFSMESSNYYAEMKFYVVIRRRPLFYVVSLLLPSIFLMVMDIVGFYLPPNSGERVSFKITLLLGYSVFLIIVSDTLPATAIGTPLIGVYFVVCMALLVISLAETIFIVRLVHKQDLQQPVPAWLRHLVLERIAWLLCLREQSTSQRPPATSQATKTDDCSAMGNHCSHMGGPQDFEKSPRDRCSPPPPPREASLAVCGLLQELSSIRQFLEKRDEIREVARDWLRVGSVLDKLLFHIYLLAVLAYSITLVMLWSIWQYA
# Sequence of CXCR2 (IL-8B) (h) (P25025 whole entry): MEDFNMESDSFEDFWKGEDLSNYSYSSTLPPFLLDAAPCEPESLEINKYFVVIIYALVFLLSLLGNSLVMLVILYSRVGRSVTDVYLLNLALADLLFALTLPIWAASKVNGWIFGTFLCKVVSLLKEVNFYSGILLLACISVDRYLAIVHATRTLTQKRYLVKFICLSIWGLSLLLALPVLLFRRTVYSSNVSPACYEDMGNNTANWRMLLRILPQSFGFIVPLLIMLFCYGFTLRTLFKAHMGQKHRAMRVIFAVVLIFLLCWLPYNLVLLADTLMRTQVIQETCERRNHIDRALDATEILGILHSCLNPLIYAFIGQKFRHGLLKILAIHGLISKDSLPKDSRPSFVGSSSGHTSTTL
# Sequence of CCK1 (CCKA) (h) (P32238 whole entry): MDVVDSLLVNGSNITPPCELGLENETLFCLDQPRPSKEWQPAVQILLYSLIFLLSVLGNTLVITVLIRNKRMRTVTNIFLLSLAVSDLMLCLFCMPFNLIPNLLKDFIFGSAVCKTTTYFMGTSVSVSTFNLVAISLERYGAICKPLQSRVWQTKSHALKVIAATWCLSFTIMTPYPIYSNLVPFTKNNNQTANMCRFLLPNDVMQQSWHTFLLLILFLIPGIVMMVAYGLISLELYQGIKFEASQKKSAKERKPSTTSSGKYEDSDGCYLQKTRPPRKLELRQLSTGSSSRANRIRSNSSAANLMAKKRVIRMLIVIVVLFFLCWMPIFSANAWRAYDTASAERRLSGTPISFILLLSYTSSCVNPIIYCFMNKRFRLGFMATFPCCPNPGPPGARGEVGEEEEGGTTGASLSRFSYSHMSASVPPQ
# Sequence of NTS1 (NT1) (h) (P30989 whole entry): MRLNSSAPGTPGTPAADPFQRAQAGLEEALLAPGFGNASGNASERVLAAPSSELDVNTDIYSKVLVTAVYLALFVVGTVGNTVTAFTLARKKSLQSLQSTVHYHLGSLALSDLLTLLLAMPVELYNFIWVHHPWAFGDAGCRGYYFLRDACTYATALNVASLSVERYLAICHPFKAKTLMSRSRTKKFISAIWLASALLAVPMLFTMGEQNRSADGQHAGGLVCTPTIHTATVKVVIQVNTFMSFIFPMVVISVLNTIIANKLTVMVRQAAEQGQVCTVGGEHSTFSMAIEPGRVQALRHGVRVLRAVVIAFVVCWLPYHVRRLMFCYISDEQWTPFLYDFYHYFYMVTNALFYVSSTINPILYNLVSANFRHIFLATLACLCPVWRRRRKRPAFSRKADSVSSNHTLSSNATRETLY
# Sequence of M1 (h) (P11229 whole entry): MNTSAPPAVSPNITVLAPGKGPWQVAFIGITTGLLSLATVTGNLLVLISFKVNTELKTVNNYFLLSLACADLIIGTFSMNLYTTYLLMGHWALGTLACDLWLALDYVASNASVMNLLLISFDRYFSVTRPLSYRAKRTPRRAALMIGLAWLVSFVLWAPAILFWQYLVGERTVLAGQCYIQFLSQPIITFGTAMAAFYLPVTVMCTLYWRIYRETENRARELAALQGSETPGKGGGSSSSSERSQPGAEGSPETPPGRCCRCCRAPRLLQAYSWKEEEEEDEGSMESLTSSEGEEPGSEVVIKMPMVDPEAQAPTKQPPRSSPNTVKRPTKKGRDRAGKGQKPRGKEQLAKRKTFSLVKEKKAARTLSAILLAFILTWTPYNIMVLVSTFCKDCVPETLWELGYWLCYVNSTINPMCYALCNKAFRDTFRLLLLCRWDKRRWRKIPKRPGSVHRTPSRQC
# Sequence of 5-HT5a (h) (P47898 whole entry): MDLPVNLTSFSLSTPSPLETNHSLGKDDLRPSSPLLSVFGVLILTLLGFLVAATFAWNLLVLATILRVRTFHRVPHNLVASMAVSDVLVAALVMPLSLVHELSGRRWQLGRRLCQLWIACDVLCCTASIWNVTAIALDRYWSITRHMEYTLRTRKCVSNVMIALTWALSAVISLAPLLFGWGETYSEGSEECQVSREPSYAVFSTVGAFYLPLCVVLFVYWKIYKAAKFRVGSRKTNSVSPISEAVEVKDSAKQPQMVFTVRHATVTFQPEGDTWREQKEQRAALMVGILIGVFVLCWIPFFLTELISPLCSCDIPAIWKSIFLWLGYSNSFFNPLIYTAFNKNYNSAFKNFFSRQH
# Sequence of ETA (h) (P25101 21-427): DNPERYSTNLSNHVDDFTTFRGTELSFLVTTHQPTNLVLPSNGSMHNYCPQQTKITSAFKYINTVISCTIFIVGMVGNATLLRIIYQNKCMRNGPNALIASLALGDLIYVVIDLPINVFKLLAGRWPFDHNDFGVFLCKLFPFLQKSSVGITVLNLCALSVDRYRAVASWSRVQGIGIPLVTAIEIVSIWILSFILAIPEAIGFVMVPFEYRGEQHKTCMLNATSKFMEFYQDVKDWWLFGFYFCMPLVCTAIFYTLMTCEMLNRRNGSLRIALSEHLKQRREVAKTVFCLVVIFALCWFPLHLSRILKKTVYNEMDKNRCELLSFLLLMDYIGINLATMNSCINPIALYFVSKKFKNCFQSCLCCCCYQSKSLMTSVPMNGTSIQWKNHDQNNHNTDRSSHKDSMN
# Sequence of D2S (h) (P14416 other isoform, or with tags, fused parts or gaps): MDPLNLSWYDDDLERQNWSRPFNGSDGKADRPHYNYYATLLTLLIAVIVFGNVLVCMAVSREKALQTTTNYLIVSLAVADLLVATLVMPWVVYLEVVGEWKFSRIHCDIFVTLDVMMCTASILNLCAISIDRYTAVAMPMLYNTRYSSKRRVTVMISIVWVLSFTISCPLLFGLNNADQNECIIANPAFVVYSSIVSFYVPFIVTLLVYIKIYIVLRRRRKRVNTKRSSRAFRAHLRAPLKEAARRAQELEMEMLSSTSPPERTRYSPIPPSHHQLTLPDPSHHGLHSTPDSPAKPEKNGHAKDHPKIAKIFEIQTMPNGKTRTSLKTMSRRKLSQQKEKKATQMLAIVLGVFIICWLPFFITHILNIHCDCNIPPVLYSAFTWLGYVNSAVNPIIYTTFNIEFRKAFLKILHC
# Sequence of 5-HT6 (h) (P50406 whole entry): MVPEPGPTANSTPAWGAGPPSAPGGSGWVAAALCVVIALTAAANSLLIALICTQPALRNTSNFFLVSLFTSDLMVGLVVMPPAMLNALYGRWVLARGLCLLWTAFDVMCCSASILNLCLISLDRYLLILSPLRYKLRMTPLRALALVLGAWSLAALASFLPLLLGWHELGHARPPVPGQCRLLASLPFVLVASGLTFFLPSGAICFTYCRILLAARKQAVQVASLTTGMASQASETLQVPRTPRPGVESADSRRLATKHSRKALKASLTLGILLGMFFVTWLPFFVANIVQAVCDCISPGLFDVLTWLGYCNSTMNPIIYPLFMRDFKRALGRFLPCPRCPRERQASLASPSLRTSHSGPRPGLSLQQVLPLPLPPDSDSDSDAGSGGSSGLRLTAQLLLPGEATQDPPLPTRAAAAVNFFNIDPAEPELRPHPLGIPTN
# Sequence of 5-HT2A (h) (P28223 whole entry): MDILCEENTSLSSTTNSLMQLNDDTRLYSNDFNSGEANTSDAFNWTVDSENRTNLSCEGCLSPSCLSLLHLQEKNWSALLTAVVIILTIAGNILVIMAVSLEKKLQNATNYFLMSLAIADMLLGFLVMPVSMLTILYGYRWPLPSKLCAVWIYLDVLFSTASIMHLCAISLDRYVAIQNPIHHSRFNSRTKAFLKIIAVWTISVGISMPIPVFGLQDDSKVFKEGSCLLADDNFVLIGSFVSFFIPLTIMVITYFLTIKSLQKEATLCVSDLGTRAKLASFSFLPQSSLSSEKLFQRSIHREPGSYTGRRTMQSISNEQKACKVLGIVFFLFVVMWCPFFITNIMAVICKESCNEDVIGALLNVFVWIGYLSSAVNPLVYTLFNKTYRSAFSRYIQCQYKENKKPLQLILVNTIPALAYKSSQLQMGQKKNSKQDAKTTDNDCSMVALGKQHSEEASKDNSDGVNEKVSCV
structure (smiles),measurement,setting,value
"COc1cccc(OC)c1-c1cc(C(=O)NC2(C(=O)O)C3CC4CC(C3)CC2C4)nn1-c1ccc(C(=O)N(C)CCCN(C)CCCN(C)C(=O)CN2CCN(CC(=O)O)CCN(CC(=O)O)CCN(CC(=O)O)CC2)cc1C(C)C (stereo not shown) [(IIIa), 2-{[1-{4-[(3-{[3-(DOTA-methyl-amino)-propyl]-methyl-amino}-propyl)-methyl-carbamoyl]-2-isopropyl-phenyl}-5-(2,6-dimethoxy-phenyl)-1H-pyrazole-3-carbonyl]-amino}-adamantane-2-carboxylic acid]",inhibition at 10 µM,dopamine transporter (h); [2],-15%
same,remaining activity at 10 µM,dopamine transporter (h); [3],124%
same,remaining activity at 10 µM,dopamine transporter (h); [4],106%
same,remaining activity at 10 µM,dopamine transporter (h); [5],115%
same,inhibition at 10 µM,CXCR2 (IL-8B) (h); [2],-9%
same,remaining activity at 10 µM,CXCR2 (IL-8B) (h); [3],119%
same,remaining activity at 10 µM,CXCR2 (IL-8B) (h); [4],99.6%
same,remaining activity at 10 µM,CXCR2 (IL-8B) (h); [5],109%
same,inhibition at 10 µM,5-HT5a (h); [2],-2%
same,remaining activity at 10 µM,5-HT5a (h); [3],109%
same,remaining activity at 10 µM,5-HT5a (h); [4],95.2%
same,remaining activity at 10 µM,5-HT5a (h); [5],102%
same,stability in mouse plasma,[1],highly stable
same,"% remaining after 24 h incubation, Mouse plasma","[1]; 10 μM, 37° C., 24 h",>80%
same,% Inhibition of Control Specific Binding,GABA (non-selective),−6%
same,% of Control Specific Binding 1st,GABA (non-selective),101.9%
same,% of Control Specific Binding 2nd,GABA (non-selective),109.9%
same,% of Control Specific Binding Mean,GABA (non-selective),105.9%
same,% Inhibition of Control Specific Binding,sst (non-selective),−11%
same,% of Control Specific Binding 1st,sst (non-selective),111.6%
same,% of Control Specific Binding 2nd,sst (non-selective),110.0%
same,% of Control Specific Binding Mean,sst (non-selective),110.8%
same,inhibition at 10 µM,5-HT2A (h); [2],-2%
same,remaining activity at 10 µM,5-HT2A (h); [3],101%
same,remaining activity at 10 µM,5-HT2A (h); [4],103%
same,remaining activity at 10 µM,5-HT2A (h); [5],102%
same,inhibition at 10 µM,D2S (h); [2],-9%
same,remaining activity at 10 µM,D2S (h); [3],113%
same,remaining activity at 10 µM,D2S (h); [4],105%
same,remaining activity at 10 µM,D2S (h); [5],109%
same,% Inhibition of Control Specific Binding,alpha 2 (non-selective),−10%
same,% of Control Specific Binding 1st,alpha 2 (non-selective),114.4%
same,% of Control Specific Binding 2nd,alpha 2 (non-selective),106.1%
same,% of Control Specific Binding Mean,alpha 2 (non-selective),110.3%
same,inhibition at 10 µM,ETA (h); [2],-10%
same,remaining activity at 10 µM,ETA (h); [3],114%
same,remaining activity at 10 µM,ETA (h); [4],105%
same,remaining activity at 10 µM,ETA (h); [5],110%
same,inhibition at 10 µM,V1a (h); [2],6%
same,remaining activity at 10 µM,V1a (h); [3],94.1%
same,remaining activity at 10 µM,V1a (h); [4],93%
same,remaining activity at 10 µM,V1a (h); [5],93.5%
same,inhibition at 10 µM,CCK1 (CCKA) (h); [2],-18%
same,remaining activity at 10 µM,CCK1 (CCKA) (h); [3],102%
same,remaining activity at 10 µM,CCK1 (CCKA) (h); [4],135%
same,remaining activity at 10 µM,CCK1 (CCKA) (h); [5],118%
same,inhibition at 10 µM,NTS1 (NT1) (h); [2],99%
same,remaining activity at 10 µM,NTS1 (NT1) (h); [3],2.7%
same,remaining activity at 10 µM,NTS1 (NT1) (h); [4],-0.1%
same,remaining activity at 10 µM,NTS1 (NT1) (h); [5],1.3%
same,% Inhibition of Control Specific Binding,Cl-channel (GABA-gated),2%
same,% of Control Specific Binding 1st,Cl-channel (GABA-gated),106.5%
same,% of Control Specific Binding 2nd,Cl-channel (GABA-gated),89.1%
same,% of Control Specific Binding Mean,Cl-channel (GABA-gated),97.8%
same,inhibition at 10 µM,kappa (KOP); [2],-2%
same,remaining activity at 10 µM,kappa (KOP); [3],111%
same,remaining activity at 10 µM,kappa (KOP); [4],92.3%
same,remaining activity at 10 µM,kappa (KOP); [5],102%
same,inhibition at 10 µM,AT1 (h); [2],-18%
same,remaining activity at 10 µM,AT1 (h); [3],119%
same,remaining activity at 10 µM,AT1 (h); [4],117%
same,remaining activity at 10 µM,AT1 (h); [5],118%
same,inhibition at 10 µM,5-HT6 (h); [2],-6%
same,remaining activity at 10 µM,5-HT6 (h); [3],106%
same,remaining activity at 10 µM,5-HT6 (h); [4],105%
same,remaining activity at 10 µM,5-HT6 (h); [5],106%
same,inhibition at 10 µM,5-HT3 (h); [2],-8%
same,remaining activity at 10 µM,5-HT3 (h); [3],108%
same,remaining activity at 10 µM,5-HT3 (h); [4],108%
same,remaining activity at 10 µM,5-HT3 (h); [5],108%
same,% Inhibition of Control Specific Binding,SKCa channel,4%
same,% of Control Specific Binding 1st,SKCa channel,97.3%
same,% of Control Specific Binding 2nd,SKCa channel,95.2%
same,% of Control Specific Binding Mean,SKCa channel,96.2%
same,inhibition at 10 µM,M1 (h); [2],-25%
same,remaining activity at 10 µM,M1 (h); [3],111%
same,remaining activity at 10 µM,M1 (h); [4],138%
same,remaining activity at 10 µM,M1 (h); [5],125%
same,inhibition at 10 µM,Y2 (h); [2],-23%
same,remaining activity at 10 µM,Y2 (h); [3],130%
same,remaining activity at 10 µM,Y2 (h); [4],116%
same,remaining activity at 10 µM,Y2 (h); [5],123%
